# Experimental data: patent EP2253617A1, “Halogenated compounds as pesticides” (Bayer CropScience AG, priority 2009, dated 2010)
# Like-named read-outs stand apart in the source and are kept apart here.
# How the values were obtained:
# Spodoptera frugiperda = Spodoptera frugiperda test (SPODFR spray treatment); assay type: in vivo; conditions: 500 g/ha, sprayed maize leaf discs, caterpillars, after 7 days; 100 % = all caterpillars killed
# Source text: Spodoptera frugiperda-Test (SPODFR Spritzbehandlung)
# (§1) • Lösungsmittel: 78,0 GewichtsteileAceton 1,5 Gewichtsteile Dimethylformamid • Emulgator: 0,5 Gewichtsteile Alkylarylpolyglykolether
# (§2) Zur Herstellung einer zweckmäßigen Wirkstoffzubereitung vermischt man 1 Gewichtsteil Wirkstoff mit den angegebenen Mengen Lösungsmittel und Emulgator und verdünnt das Konzentrat mit emulgatorhaltigem Wasser auf die gewünschte Konzentration.
# Maisblattscheiben (Zea mays) werden mit einer Wirkstoffzubereitung der gewünschten Konzentration gespritzt und nach dem Abtrocknen mit Raupen des Heerwurms (Spodoptera frugiperda) besetzt.Nach 7 Tagen wird die Wirkung in % bestimmt. Dabei bedeutet 100 %, dass alle Raupen abgetötet wurden; 0 % bedeutet, dass keine Raupe abgetötet wurde.
# physchem [1] = experiment: physchem
# Phaedon cochleariae = experiment: Phaedon test (PHAECO spray treatment); assay type: in vivo; conditions: sprayed Chinese cabbage leaf discs, larvae, after 7 days, 100 % = all beetle larvae killed
# Source text: Phaedon-Test (PHAECO Spritzbehandlung)
# as §1, §2
# Chinakohlblattscheiben (Brassica pekinensis) werden mit einer Wirkstoffzubereitung der gewünschten Konzentration gespritzt und nach dem Abtrocknen mit Larven des Meerrettichblattkäfers (Phaedon cochleariae) besetzt.
# Nach 7 Tagen wird die Wirkung in % bestimmt. Dabei bedeutet 100 %, dass alle Käferlarven abgetötet wurden; 0 % bedeutet, dass keine Käferlarven abgetötet wurden.
# Tetranychus urticae = assay type: in vivo; conditions: foliar, 144 h
# Source text: Tetranychus-Test, OP-resistent (TETRUR Spritzbehandlung)
# as §1, §2
# Bohnenblattscheiben (Phaseolus vulgaris), die von allen Stadien der Gemeinen Spinnmilbe (Tetranychus urticae) befallen sind, werden mit einer Wirkstoffzubereitung der gewünschten Konzentration gespritzt.
# Nach 6 Tagen wird die Wirkung in % bestimmt. Dabei bedeutet 100 %, dass alle Spinnmilben abgetötet wurden; 0 % bedeutet, dass keine Spinnmilben abgetötet wurden.
# physchem [2] = experiment: physchem; remark: listed apart in the source
# Ctenocephalides felis = Ctenocephalides felis oral test (CTECFE); assay type: in vivo; conditions: 100 ppm in citrated cattle blood, oral uptake, adult fleas, after 2 days; 100 % = all fleas killed
# Description: Ctenocephalides felis oral (CTECFE)
# Lösungsmittel: 1 Gewichtsteil Dimethylsulfoxid
# Zwecks Herstellung einer zweckmäßigen Wirkstoffzubereitung vermischt man 10 mg Wirkstoff mit 0,5 ml Dimethylsulfoxid. Ein Teil des Konzentrats wird mit citriertem Rinderblut verdünnt und die gewünschte Konzentration hergestellt.
# 20 nüchterne adulte Flöhe (Ctenocephalides felis) werden in eine Kammer eingesetzt, die oben und unten mit Gaze verschlossen ist. Auf die Kammer wird ein Metallzylinder gestellt, dessen Unterseite mit Parafilm verschlossen ist. Der Zylinder enthält die Blut-Wirkstoffzubereitung, die von den Flöhen durch die Parafilmmembran aufgenommen werden kann. Nach 2 Tagen wird die Abtötung in % bestimmt. Dabei bedeutet 100 %, dass alle Flöhe abgetötet wurden; 0 % bedeutet, dass kein Floh abgetötet wurde.
# Boophilus microplus = Boophilus microplus test (BOOPMI injection); assay type: in vivo; conditions: 20 µg / Tier, injection into the abdomen, after 7 days; 100 % = no tick laid fertile eggs
# Description: Boophilus microplus -Test (BOOPMI Injektion)
# Lösungsmittel: Dimethylsulfoxid
# Zur Herstellung einer zweckmäßigen Wirkstoffzubereitung vermischt man 10 mg Wirkstoff mit 0,5 ml Lösungsmittel und verdünnt das Konzentrat mit Wasser auf die gewünschte Konzentration. Die Wirkstofflösung wird in das Abdomen (Boophilus microplus) injiziert, die Tiere werden in Schalen überführt und in einem klimatisierten Raum aufbewahrt. Die Wirkungskontrolle erfolgt auf Ablage fertiler Eier. Nach 7 Tagen wird die Wirkung in % bestimmt. Dabei bedeutet 100%, dass keine Zecke fertile Eier gelegt hat.
smiles,measurement,setting,value
"O=C(Nc1cccc(Cl)c1)c1cc(NC(=O)c2cnc(C(F)(F)C(F)(F)F)nc2C(F)(F)F)ccc1Cl [Ia-32, N-{4-Chlor-3-[(3-chlorphenyl)carbamoyl]phenyl}-2-(pentafluorethyl)-4-(trifluormethyl)pyrimidin-5-carboxamid]",Wirkung,Spodoptera frugiperda,100%
same,chromatographic logP,physchem [1],4.32
same,Wirkung,Phaedon cochleariae; 500 g/ha,100%
O=C(Nc1ccc(F)cc1)c1cc(NC(=O)c2cnc(C(F)(F)C(F)(F)F)nc2C(F)F)ccc1Cl [Ia-10],chromatographic logP,physchem [1],3.67
same,Wirkung,Phaedon cochleariae; 500 g/ha,100%
"Cn1nc(C(F)(F)C(F)(F)F)c(C(F)(F)F)c1C(=O)Nc1ccc(Cl)c(C(=O)Nc2ccccc2F)c1 [Ia-18, N-{4-Chlor-3-[(2-fluorphenyl)carbamoyl]phenyl}-1-methyl-3-(pentafluorethyl)-4-(trifluormethyl)-1H-pyrazol-5-carboxamid]",Wirkung,Spodoptera frugiperda,100%
same,Wirkung,Tetranychus urticae; 500 g/ha,100%
same,chromatographic logP,physchem [2],3.94
same,Wirkung (Abtötung in %),Ctenocephalides felis,100%
same,Wirkung,Boophilus microplus,100%
same,Wirkung,Phaedon cochleariae; 500 g/ha,100%
Cn1nc(C(F)(F)C(F)(F)F)c(C(F)(F)F)c1C(=O)Nc1ccc(Cl)c(C(=O)Nc2ccccc2Cl)c1 [Ia-31],Wirkung,Spodoptera frugiperda,100%
same,chromatographic logP,physchem [2],4.28
same,Wirkung (Abtötung in %),Ctenocephalides felis,95%
same,Wirkung,Phaedon cochleariae; 500 g/ha,100%
Cn1nc(C(F)(F)C(F)(F)F)c(C(F)(F)F)c1C(=O)Nc1ccc(Cl)c(C(=O)Nc2ccc(Cl)cn2)c1 [Ia-27],Wirkung,Spodoptera frugiperda,100%
same,chromatographic logP,physchem [2],4.17
same,Wirkung,Phaedon cochleariae; 500 g/ha,100%
O=C(Nc1ccc(F)cc1)c1cc(NC(=O)c2cnc(C(F)(F)C(F)(F)F)nc2C(F)(F)C(F)(F)F)ccc1Cl [Ia-34],Wirkung,Spodoptera frugiperda,100%
same,Wirkung,Tetranychus urticae; 500 g/ha,80%
same,chromatographic logP,physchem [1],4.36
same,Wirkung,Phaedon cochleariae; 500 g/ha,100%
COc1ccc(NC(=O)c2cc(NC(=O)c3c(C(F)(F)F)c(C(F)(F)C(F)(F)F)nn3C)ccc2Cl)cc1 [Ia-12],Wirkung,Spodoptera frugiperda,100%
same,chromatographic logP,physchem [2],3.68
O=C(Nc1cccc(Cl)c1)c1cc(NC(=O)c2cnc(C(F)(F)C(F)(F)F)nc2C(F)F)ccc1Cl [Ia-25],Wirkung,Spodoptera frugiperda,100%
same,chromatographic logP,physchem [1],4.08
same,Wirkung,Phaedon cochleariae; 500 g/ha,100%
Cn1nc(C(F)(F)C(F)(F)F)c(C(F)(F)F)c1C(=O)Nc1ccc(Cl)c(C(=O)Nc2cnccc2Cl)c1 [Ia-4],Wirkung,Spodoptera frugiperda,80%
same,chromatographic logP,physchem [2],3.33
same,Wirkung,Phaedon cochleariae; 500 g/ha,100%
"Cn1nc(C(F)(F)C(F)(F)F)c(C(F)(F)F)c1C(=O)Nc1ccc(Cl)c(C(=O)Nc2ccc(Cl)c(Cl)c2)c1 [Ia-42, N-{4-Chlor-3-[(3,4-dichlorphenyl)carbamoyl]phenyl}-1-methyl-3-(pentafluorethyl)-4-(trifluormethyl)-1H-pyrazol-5-carboxamid]",Wirkung,Spodoptera frugiperda,100%
same,chromatographic logP,physchem [2],4.65
same,Wirkung,Phaedon cochleariae; 500 g/ha,100%
Cc1nc(C(F)(F)F)ccc1C(=O)Nc1ccc(Cl)c(C(=O)Nc2cccc(Cl)c2)c1 [Ia-9],chromatographic logP,physchem [1],3.6
same,Wirkung,Phaedon cochleariae; 500 g/ha,80%
Cn1nc(C(F)(F)C(F)(F)F)c(Br)c1C(=O)Nc1ccc(Cl)c(C(=O)Nc2ccc(Cl)cn2)c1 [Ia-35],Wirkung,Spodoptera frugiperda,80%
same,Wirkung,Phaedon cochleariae; 500 g/ha,100%
"Cn1nc(C(F)(F)C(F)(F)F)c(C(F)(F)F)c1C(=O)Nc1ccnc(C(=O)Nc2ccc(F)cc2)c1 [Ib-1, N-[2-(4-fluor-phenylcarbamoyl)pyrid-4-yl]-1-methyl-3-(pentafluorethyl)-4-(trifluormethyl)-1H-pyrazol-5-carbonsäureamid]",chromatographic logP,physchem [1],4.3
Cc1cc(F)ccc1NC(=O)c1cc(NC(=O)c2c(C(F)(F)F)c(C(F)(F)C(F)(F)F)nn2C)ccc1Cl [Ia-23],Wirkung,Spodoptera frugiperda,100%
same,Wirkung,Tetranychus urticae; 500 g/ha,90%
same,chromatographic logP,physchem [2],4.05
same,Wirkung,Phaedon cochleariae; 500 g/ha,100%
Cn1nc(C(F)(F)C(F)(F)F)c(C(F)(F)F)c1C(=O)Nc1ccc(Cl)c(C(=O)Nc2ccncc2)c1 [Ia-1],chromatographic logP,physchem [2],1.99
same,Wirkung,Phaedon cochleariae; 500 g/ha,100%
O=C(Nc1ccc(F)cc1)c1cc(NC(=O)c2cnc(C(F)(F)C(F)(F)F)nc2C(F)(F)F)ccc1Cl [Ia-20],Wirkung,Spodoptera frugiperda,100%
same,chromatographic logP,physchem [1],3.98
same,Wirkung,Phaedon cochleariae; 500 g/ha,100%
Cn1nc(Cn2nc(C(F)(F)C(F)(F)F)cc2C(F)(F)C(F)(F)F)c(C(F)(F)F)c1C(=O)Nc1ccc(Cl)c(C(=O)Nc2ccc(F)cc2)c1 [Ia-43],Wirkung,Spodoptera frugiperda,100%
same,chromatographic logP,physchem [1],4.99
same,Wirkung,Phaedon cochleariae; 500 g/ha,100%
Cn1nc(C(F)(F)C(F)(F)F)c(C(F)(F)F)c1C(=O)Nc1ccc(Cl)c(C(=O)Nc2cccc(Cl)n2)c1 [Ia-19],Wirkung,Spodoptera frugiperda,100%
same,Wirkung,Tetranychus urticae; 500 g/ha,100%
same,chromatographic logP,physchem [2],3.94
same,Wirkung,Phaedon cochleariae; 500 g/ha,100%
"Cc1nc(C(F)(F)F)ccc1C(=O)Nc1ccc(Cl)c(C(=O)Nc2ccc(F)cc2)c1 [Ia-3, N-{4-Chlor-3-[(4-fluorphenyl)carbamoyl]phenyl}-2-methyl-6-(trifluormethyl)nicotinamid]",Wirkung,Spodoptera frugiperda,100%
same,chromatographic logP,physchem [1],3.15
same,Wirkung,Phaedon cochleariae; 500 g/ha,100%
O=C(Nc1ccc(Cl)c(C(=O)Nc2ccc(F)cc2)c1)c1csc(C(F)(F)F)n1 [Ia-5],chromatographic logP,physchem [1],3.35
Cn1nc(C(F)(F)C(F)(F)F)c(C(F)(F)F)c1C(=O)Nc1ccc(Cl)c(C(=O)Nc2cccnc2Cl)c1 [Ia-13],Wirkung,Spodoptera frugiperda,100%
same,Wirkung,Tetranychus urticae; 500 g/ha,90%
same,chromatographic logP,physchem [2],3.73
same,Wirkung,Phaedon cochleariae; 500 g/ha,100%
Cn1nc(C(F)(F)F)c(Br)c1C(=O)Nc1ccc(Cl)c(C(=O)Nc2ccc(Cl)nc2)c1 [Ia-7],Wirkung,Tetranychus urticae; 100 g/ha,80%
same,chromatographic logP,physchem [1],3.42
same,Wirkung,Phaedon cochleariae; 100 g/ha,100%
"Cn1nc(C(F)(F)C(F)(F)F)c(C(F)(F)F)c1C(=O)Nc1ccc(Br)c(C(=O)Nc2ccc(F)cc2)n1 [Ic-1, N-[3-Brom-2-(4-fluor-phenylcarbamoyl)pyrid-6-yl]-1-methyl-3-(pentafluorethyl)-4-(trifluormethyl)-1H-pyrazol-5-carbonsäureamid]",Wirkung,Spodoptera frugiperda,100%
same,chromatographic logP,physchem [1],4.45
same,Wirkung,Phaedon cochleariae; 500 g/ha,100%
O=C(Nc1ccc(Cl)c(C(=O)Nc2cccc(Cl)c2)c1)c1csc(C(F)(F)F)n1 [Ia-14],chromatographic logP,physchem [1],3.82
Cn1nc(C(F)(F)C(F)(F)F)c(C(F)(F)F)c1C(=O)Nc1ccc(Cl)c(C(=O)Nc2ccc(F)c(C(F)(F)F)c2)c1 [Ia-39],Wirkung,Spodoptera frugiperda,100%
same,chromatographic logP,physchem [2],4.51
same,Wirkung,Phaedon cochleariae; 500 g/ha,100%
Cn1nc(C(F)(F)C(F)(F)F)c(Br)c1C(=O)Nc1ccc(Cl)c(C(=O)Nc2ccc(Cl)cc2)c1 [Ia-38],chromatographic logP,physchem [1],4.43
same,Wirkung,Phaedon cochleariae; 500 g/ha,80%
O=C(Nc1ccc(F)cc1)c1cc(NC(=O)c2cnc(C(F)(F)C(F)(F)F)nc2C2CC2)ccc1Cl [Ia-24],Wirkung,Spodoptera frugiperda,100%
same,chromatographic logP,physchem [1],4.08
same,Wirkung,Phaedon cochleariae; 500 g/ha,100%
Cn1nc(C(F)(F)C(F)(F)F)c(C(F)(F)F)c1C(=O)Nc1ccc(Cl)c(C(=O)Nc2cc(Cl)c(Cl)c(Cl)c2)c1 [Ia-44],Wirkung,Spodoptera frugiperda,100%
same,chromatographic logP,physchem [2],5.15
same,Wirkung,Phaedon cochleariae; 500 g/ha,100%
O=C(Nc1cccc(Cl)c1)c1cc(NC(=O)c2cnc(C(F)(F)C(F)(F)F)nc2C2CC2)ccc1Cl [Ia-40],Wirkung,Spodoptera frugiperda,100%
same,chromatographic logP,physchem [1],4.54
Cn1nc(C(F)(F)C(F)(F)F)c(C(F)(F)F)c1C(=O)Nc1ccc(Cl)c(C(=O)Nc2cccc(C(F)(F)F)c2)c1 [Ia-37],Wirkung,Spodoptera frugiperda,100%
same,chromatographic logP,physchem [2],4.4
same,Wirkung,Phaedon cochleariae; 500 g/ha,100%
Cc1c(NC(=O)c2cc(NC(=O)c3c(C(F)(F)F)c(C(F)(F)C(F)(F)F)nn3C)ccc2Cl)ccc(F)c1Cl [Ia-33],Wirkung,Spodoptera frugiperda,100%
same,Wirkung,Tetranychus urticae; 500 g/ha,90%
same,chromatographic logP,physchem [2],4.34
same,Wirkung,Phaedon cochleariae; 500 g/ha,100%
Cn1nc(C(F)(F)C(F)(F)F)c(C(F)(F)F)c1C(=O)Nc1ccc(Cl)c(C(=O)Nc2ccnc(Cl)c2)c1 [Ia-6],Wirkung,Spodoptera frugiperda,100%
same,Wirkung,Tetranychus urticae; 500 g/ha,80%
same,chromatographic logP,physchem [2],3.37
same,Wirkung,Phaedon cochleariae; 500 g/ha,100%
Cc1cc(NC(=O)c2cc(NC(=O)c3c(C(F)(F)F)c(C(F)(F)C(F)(F)F)nn3C)ccc2Cl)c(Cl)cc1F [Ia-41],chromatographic logP,physchem [2],4.64
same,Wirkung,Phaedon cochleariae; 500 g/ha,100%
